Laboratory results: the CheMixHub ionic liquid set

Assay: xn = mol fraction of the nth substance listed

CC[N+](C)(CC)CCOC.O=S(=O)([N-]S(=O)(=O)C(F)(F)F)C(F)(F)F + O=C1CCCO1
101 kPa
Conditions	electrical conductivity [S/m]	viscosity [mPa·s]
288.15 K, x1 = 0.1004	1.07	5.77
288.15 K, x1 = 0.2006	1.05	8.69
288.15 K, x1 = 0.4998	0.504	39.28
288.15 K, x1 = 0.6002	0.42	63.7
293.15 K, x1 = 0.1004	1.18	4.642
293.15 K, x1 = 0.3003	0.925	12.34
293.15 K, x1 = 0.4998	0.589	30.79
293.15 K, x1 = 1	0.184	162.2
298.15 K, x1 = 0.1004	1.305	3.697
298.15 K, x1 = 0.4007	0.841	15.12
303.15 K, x1 = 0.6999	0.592	39.92
303.15 K, x1 = 1	0.301	89.7
308.15 K, x1 = 0.3003	1.28	7.61
308.15 K, x1 = 0.4007	1.08	10.57
308.15 K, x1 = 0.4998	0.904	15.55
308.15 K, x1 = 0.9003	0.463	51.6
313.15 K, x1 = 0.1004	1.644	1.923
313.15 K, x1 = 0.2006	1.76	3.958
313.15 K, x1 = 0.8001	0.676	30.48
318.15 K, x1 = 0.6002	1.021	14.49
323.15 K, x1 = 0.2006	2.07	2.954
323.15 K, x1 = 0.4007	1.5	6.43
323.15 K, x1 = 0.4998	1.29	8.64
323.15 K, x1 = 0.6002	1.145	11.6
328.15 K, x1 = 0.6002	1.28	9.45
328.15 K, x1 = 1	0.706	26.35
333.15 K, x1 = 0.4007	1.812	4.73
333.15 K, x1 = 1	0.816	21.31
343.15 K, x1 = 0.3003	2.44	2.72
343.15 K, x1 = 0.4998	1.926	4.472
348.15 K, x1 = 0.4007	2.346	3.095
348.15 K, x1 = 0.6999	1.68	5.09
348.15 K, x1 = 0.9003	1.328	9.11
353.15 K, x1 = 0.2006	3.09	1.361
353.15 K, x1 = 0.3003	2.85	2.11
353.15 K, x1 = 0.6002	2.05	3.425
353.15 K, x1 = 0.9003	1.46	7.16

[Cl-].[NH4+] + CC(=O)[O-].CC[n+]1ccn(C)c1
101 kPa
Conditions	electrical conductivity [S/m]	viscosity [mPa·s]
298.15 K, x1 = 0.0505	0.234	172
303.15 K, x1 = 0.0505	0.308	124.6
313.15 K, x1 = 0.0999	0.431	91.7
313.15 K, x1 = 0.1702	0.341	142.8
318.15 K, x1 = 0.0505	0.622	55.4
323.15 K, x1 = 0.0505	0.755	44

CCCCO + CCCCCCCCCCCC[N+](C)(C)Cc1ccccc1.O=S(=O)([N-]S(=O)(=O)C(F)(F)F)C(F)(F)F
101 kPa, x2 = 0
Conditions	viscosity [mPa·s]
298.15 K	2.52
308.15 K	1.98
313.15 K	1.75
343.15 K	0.92
348.15 K	0.845

CC(=O)[O-].CC[NH3+] + O
298.15 K, 101 kPa
Conditions	electrical conductivity [S/m]
x2 = 0.6519	1.55
x2 = 0.8802	2.91
x2 = 0.9004	3.01
x2 = 0.91	3.05
x2 = 0.93	3.06

CCCCCCCC[n+]1ccn(C)c1.O=C([O-])[C@@H]1CCCN1 + O
298.15 K, 100 kPa, frequency 0.001 MHz
Conditions	electrical conductivity [S/m]
x1 = 0.001745	0.149
x1 = 0.002409	0.209
x1 = 0.002947	0.264
x1 = 0.003555	0.308
x1 = 0.004199	0.369
x1 = 0.004895	0.425
x1 = 0.005502	0.483
x1 = 0.006143	0.531
x1 = 0.006819	0.572
x1 = 0.0076	0.608
x1 = 0.008416	0.648
x1 = 0.009336	0.688
x1 = 0.01018	0.725
x1 = 0.01137	0.783
x1 = 0.01233	0.819
x1 = 0.01355	0.879

CC[N+](C)(CC)CCOC.O=S(=O)([N-]S(=O)(=O)C(F)(F)F)C(F)(F)F + CC[N+](C)(CC)CCOC.F[B-](F)(F)F
Conditions	electrical conductivity [S/m]
298.15 K, 100 kPa, x1 = 1	0.311
